The numbers were not newly measured in patent publication US10363268B2, “Proton-binding polymers for oral administration” (Tricida, Inc., priority 2013, dated 2019), which cites them from elsewhere.

Molecules are shown by their SMILES.

The subject of this series is adult patients with CKD.

`O=C([O-])O.[Na+]` [sodium bicarbonate, Sodium bicarbonate]: for the setting “CKD patients, 2 years”, the “patients experiencing rapid progression (rapid decline of CrCl >3 ml/min per 1.73 m^2/yr)” value was 9%. Also, under “CKD patients, 2 years, ESRD = CrCl<10 ml/min”, the “patients who developed ESRD” value is on record as 6.5%. Also, the “decline in CrCl” value (CKD patients, oral sodium bicarbonate for 2 years, average dose 1.82 g/day) is given as 1.88 ml/min per 1.73 m^2. For the setting “versus control group”, the “relative risk of ESRD” value is 0.13 and the “relative risk of rapid progression” value is recorded as 0.15.
